Experimental data taken from patent US8258309B2, “Azapeptide derivatives” (priority 2007, dated 2012).
Where two headings read alike, the source gives them in different places.

Key:
[1] = Microsomal assay: stability in human liver microsomes; format: in vitro ADME; conditions: for half-life at 1 μM: liver microsomes; for half-life as compared to atazanavir: human liver microsomes, first run
Procedure: Microsomal Assay. Human liver microsomes (20 mg/mL, pool of 50 individuals) were obtained from Xenotech LLC (Lenexa, Kans.). The incubation mixtures are prepared as follows. Stock solutions (10 mM) solutions of test Compounds 103, 106, 122 and of atazanavir were prepared in DMSO. The 10 mM stock solutions were diluted to 1 mM in acetonitrile (ACN). […] The microsome-test compound mixtures were added to wells of a 2 mL 96-well deep well polypropylene plate in triplicate. The plate was warmed to 37° C. before initiating the reactions by addition of prewarmed NADPH in 0.1 M potassium phosphate buffer, pH 7.4, containing 3 mM MgCl2. The final reaction mixture composition contained: • Liver Microsomes 0.5 mg/mL • NADPH 2 mM • Potassium Phosphate, pH 7.4 100 mM • Magnesium Chloride 3 mM • Test Compound 1.0 μM. The reaction mixtures were incubated at 37° C. and 50 μL aliquots were removed at 0, 3, 7, 12, 20, and 30 minutes and added to shallow-well 96-well plates which contained 50 μL of ice-cold ACN with internal standard to stop the reactions. The plates were stored at −20° C. for 30 minutes, after which 100 μL of water was added to the wells of the plate before centrifugation to pellet precipitated proteins. Supernatants were transferred to another 96-well plate and analyzed for amounts of parent remaining by LC-MS/MS using an Applied Biosystems API 4000 mass spectrometer. […] Data analysis was performed using Microsoft Excel Software. […] The results are shown in FIGS. 2 and 3 and in Table 3, below: […]

[2] = test system: HIV-1RF; assay: HIV anti-viral activity in CEM-SS cells infected with HIV-1 (XTT); format: cell-based
Procedure: The HIV antiviral activity of compound of the present invention was tested in CEM-SS cells infected with HIV-1. CEM-SS cells were passaged in T-75 flasks in RPMI 1640 medium supplemented with 10% heat inactivated fetal bovine serum, 2 mmol/L L-glutamine, 100 U/mL penicillin and 100 flg/mL streptomycin prior to use in the antiviral assay. On the day preceding the assay, the cells were split 1:2 to assure they were in an exponential growth phase at the time of infection. Total cell and viability quantification was performed using a hemocytometer and Trypan Blue dye exclusion. Cell viability was greater than 95% for the cells to be utilized in the assay. The cells were resuspended at 5×10^4 cells per mL in tissue culture medium and added to the drug-containing microtiter plates in a volume of 50 μL.
The virus used for the assay was the lymphocyte-tropic virus strain HIV-IRF. The virus was obtained from the NIH AIDS Research and Reference Reagent Program and stock virus pools were produced in CEM-SS cells. A pre-titered aliquot of virus was removed from the freezer (−80° C.) and allowed to thaw slowly to room temperature in a biological safety cabinet. Virus was resuspended and diluted into tissue culture medium such that the amount of virus added to each well in a volume of 50 μL was the amount determined to yield 85 to 95% cell killing at 6 days post-infection.
Each plate contains cell control wells (cells only), virus control wells (cells plus virus), compound toxicity wells (cells plus compound only), compound colorimetric control wells (compound only) as well as experimental wells (compound plus cells plus virus). Samples were tested in triplicate with eleven half-log dilutions per compound starting at 0.1 μM of compound. Compounds 104, 120 and 122 were tested, as was atazanavir and AZT. […]
Following incubation at 37° C. in a 5% CO2 incubator, the test plates were stained with the tetrazolium dye XTT (2,3-bis(2-methoxy-4-nitro-5sulfophenyl)-5-[(phenylamino)carbonyl]-2H-tetrazolium hydroxide). XTT-tetrazolium was metabolized by the mitochondrial enzymes of metabolically active cells to a soluble formazan product, allowing rapid quantitative analysis of the inhibition of HIV induced cell killing by anti-HIV test substances. XTT solution was prepared daily as a stock of 1 mg/mL in RPMI 1640. Phenazine methosulfate (PMS) solution was prepared at 0.15 mg/mL in PBS and stored in the dark at −20° C. XTT/PMS stock was prepared immediately before use by adding 40 μL of PMS per mL of XTT solution. Fifty microliters of XTT/PMS was added to each well of the plate and the plate was reincubated for 4 hours at 37° C. Plates were sealed with adhesive plate sealers and shaken gently or inverted several times to mix the soluble formazan product and the plate was read spectrophotometrically at 450/650 nm with a Molecular Devices Vmax plate reader.
Raw data was collected from the Softmax Pro 4.6 software and imported into a Microsoft Excel 2003 spreadsheet for analysis by linear curve fit calculations.

[3] = human, pH 7.4, human liver microsomes, repeated assay (Table 3), read-out: t1/2 (min) Avg ± SD (n = 3)
[4] = human, pH 7.4, human liver microsomes 0.5 mg/mL, 1.0 μM test compound, first run (Table 2), read-out: T1/2 ± SD
[5] = No Serum Protein Added (cell culture medium)

**Q.** With [2H]C([2H])([2H])OC(=O)N[C@H](C(=O)N[C@@H](Cc1ccccc1)[C@@H](O)CN(NC(=O)[C@@H](NC(=O)OC([2H])([2H])[2H])C(C([2H])([2H])[2H])(C([2H])([2H])[2H])C([2H])([2H])[2H])C([2H])([2H])c1ccc(-c2ccccn2)cc1)C(C([2H])([2H])[2H])(C([2H])([2H])[2H])C([2H])([2H])[2H] [Compound 131, 1,14-Di(methyl-d3)(3S,8S,9S,12S)-3,12-bis[(1,1-dimethylethyl)-d9]-8-hydroxy-4,11-dioxo-9-(phenylmethyl)-6-[[4-(2-pyridinyl)phenyl]methyl-d2]-2,5,6,10,13-pentaazatetradecanedioate] as the compound, how does the half-life at 1 μM [1, 3] read?
**A.** 30.9 ± 1.4 min

**Q.** Which half-life at 1 μM [1, 3] does the source give for [2H]C([2H])([2H])OC(=O)N[C@H](C(=O)N[C@@H](Cc1ccccc1)[C@@H](O)CN(Cc1ccc(-c2ccccn2)cc1)NC(=O)[C@@H](NC(=O)OC([2H])([2H])[2H])C(C([2H])([2H])[2H])(C([2H])([2H])[2H])C([2H])([2H])[2H])C(C)(C)C [Compound 121, 1,14-Di(methyl-d3)(3S,8S,9S,12S)-3-[(1,1-dimethylethyl)-d9]-12-(1,1-dimethylethyl)-8-hydroxy-4,11-dioxo-9-(phenylmethyl)-6-[[4-(2-pyridinyl)phenyl]methyl]-2,5,6,10,13-pentaazatetradecanedioate] here?
**A.** 18.8 ± 1.5 min

**Q.** With [2H]C([2H])([2H])OC(=O)N[C@H](C(=O)N[C@@H](Cc1ccccc1)[C@@H](O)CN(NC(=O)[C@@H](NC(=O)OC)C(C)(C)C)C([2H])([2H])c1ccc(-c2ccccn2)cc1)C(C([2H])([2H])[2H])(C([2H])([2H])[2H])C([2H])([2H])[2H] [Compound 123, 1-Methyl-14-(methyl-d3)(3S,8S,9S,12S)-3-(1,1-dimethylethyl)-12-[(1,1-dimethylethyl)-d9]-8-hydroxy-4,11-dioxo-9-(phenylmethyl)-6-[[4-(2-pyridinyl)phenyl]methyl-2]-2,5,6,10,13-pentaazatetradecanedioate] as the compound, how does the half-life at 1 μM [1, 3] read?
**A.** 23.9 ± 0.8 min

**Q.** Which results are given for [2H]C([2H])([2H])OC(=O)N[C@H](C(=O)N[C@@H](Cc1ccccc1)[C@@H](O)CN(Cc1ccc(-c2ccccn2)cc1)NC(=O)[C@@H](NC(=O)OC([2H])([2H])[2H])C(C)(C)C)C(C)(C)C [Compound 103, 1,14-Di(methyl-d3)(3S,8S,9S,12S)-3,12-bis(1,1-dimethylethyl)-8-hydroxy-4,11-dioxo-9-(phenylmethyl)-6-[[4-(2-pyridinyl)phenyl]methyl]-2,5,6,10,13-pentaazatetradecanedioate]?
**A.** half-life as compared to atazanavir [1]: increased half-life; % change in t1/2 ([1]; human, 1 μM, pH 7.4): −9%; half-life at 1 μM [1, 4]: 20.2 ± 4.22 min; half-life at 1 μM [1, 3]: 17.2 ± 0.9 min

**Q.** Which EC50 ([2]; +0.5 mg/mL AAGP) does the source give for Cc1cn([C@H]2C[C@H](N=[N+]=[N-])[C@@H](CO)O2)c(=O)[nH]c1=O [AZT, reference compound] here?
**A.** 1 nM

**Q.** And the EC50 ([2]; +10 mg/mL HAS)?
**A.** 2 nM

**Q.** And the EC50 ([2]; +AAGP + HSA)?
**A.** 2 nM

**Q.** And the EC50 [2, 5]?
**A.** 2 nM

**Q.** For “1,14-Dimethyl(3S,8S,9S,12S)-3-(1,1-dimethylethyl)-12-[(1,1-dimethylethyl)-d9]-8-hydroxy-4,11-dioxo-9-(phenylmethyl)-6-[[4-(2-pyridinyl)phenyl]methyl]-2,5,6,10,13-pentaazatetradecanedioate [Compound 104]”, which “t1/2 (min) Avg ± SD (n = 3)” value ([1]; human, microsomes) is on record?
**A.** 23.3 ± 0.4 min

**Q.** What about the “fold increase of EC50 in the presence of AAGP” value ([2]; 0.5 mg/mL AAGP versus cell culture medium) of the same compound?
**A.** greater than 7 fold

**Q.** What about the “fold less potent in the presence of HSA than in cell culture medium alone” value ([2]; 10 mg/mL HSA versus cell culture medium) of the same compound?
**A.** two- to greater than three-fold less potent

**Q.** And the EC50 ([2]; +0.5 mg/mL AAGP)?
**A.** 2 nM

**Q.** What about the EC50 ([2]; +10 mg/mL HAS) of the same compound?
**A.** 0.9 nM

**Q.** And the EC50 ([2]; +AAGP + HSA)?
**A.** 4 nM

**Q.** And the “fold decrease of antiviral activity in the presence of AAGP plus HSA” value ([2]; AAGP plus HSA versus cell culture medium)?
**A.** greater than 13 fold

**Q.** What about the EC50 [2, 5] of the same compound?
**A.** < 0.3 nM

**Q.** For [2H]C([2H])([2H])C([C@H](NC(=O)OC)C(=O)N[C@@H](Cc1ccccc1)[C@@H](O)CN(Cc1ccc(-c2ccccn2)cc1)NC(=O)[C@@H](NC(=O)OC)C(C([2H])([2H])[2H])(C([2H])([2H])[2H])C([2H])([2H])[2H])(C([2H])([2H])[2H])C([2H])([2H])[2H] [Compound 106, 1,14-Dimethyl(3S,8S,9S,12S)-3,12-bis[(1,1-dimethylethyl)-d9]-8-hydroxy-4,11-dioxo-9-(phenylmethyl)-6-[[4-(2-pyridinyl)phenyl]methyl]-2,5,6,10,13-pentaazatetradecanedioate], which “half-life as compared to atazanavir” value [1] is on record?
**A.** increased half-life

**Q.** And the “increase in half-life as compared to atazanavir” value ([1]; human, 1 μM, pH 7.4)?
**A.** approximately 40%

**Q.** What about the half-life at 1 μM [1, 4] of the same compound?
**A.** 26.1 ± 0.99 min

**Q.** What about the half-life at 1 μM [1, 3] of the same compound?
**A.** 25.6 ± 0.6 min

**Q.** With [2H]C([2H])(c1ccc(-c2ccccn2)cc1)N(C[C@H](O)[C@H](Cc1ccccc1)NC(=O)[C@@H](NC(=O)OC)C(C([2H])([2H])[2H])(C([2H])([2H])[2H])C([2H])([2H])[2H])NC(=O)[C@@H](NC(=O)OC)C(C)(C)C [Compound 111, 1,14-Dimethyl(3S,8S,9S,12S)-3-(1,1-dimethylethyl)-12-[(1,1-dimethylethyl)-d9]-8-hydroxy-4,11-dioxo-9-(phenylmethyl)-6-[[4-(2-pyridinyl)phenyl]methyl-d2]2,5,6,10,13-pentaazatetradecanedioate] as the compound, how does the half-life at 1 μM [1, 3] read?
**A.** 23.9 ± 0.3 min
